What was measured:
[1] = solubility in organic solvents relative to compound of formula I; format: physicochemical
Source text: In Scheme III above, the compound of formula I may be contaminated with achiral dimer, (methylsulfonyl){2-[4-(4-{2-[(methylsulfonyl)amino]ethyl}phenyl)phenyl]ethyl}amine and chiral dimer, ((2R)-2-{4-[4-((1R)-1-methyl-2-{[(methylethyl)sulfonyl]amino}ethyl)phenyl]phenyl}propyl)[(methylethyl)sulfonyl]amine. […] However, the above achiral dimer is less soluble in organic solvents than the compound of formula I therefore, generally resisted removal from the compound of formula I by recrystallization.

water solubility = format: physicochemical

CS(=O)(=O)NCCc1ccc(-c2ccc(CCNS(C)(=O)=O)cc2)cc1 [achiral dimer, (methylsulfonyl){2-[4-(4-{2-[(methylsulfonyl)amino]ethyl}phenyl)phenyl]ethyl}amine]
solubility in organic solvents compared with the compound of formula I [1]: less soluble

CC(C)S(=O)(=O)NC[C@H](C)c1ccc(-c2ccc([C@@H](C)CNS(=O)(=O)C(C)C)cc2)cc1 [chiral dimer, ((2R)-2-{4-[4-((1R)-1-methyl-2-{[(methylethyl)sulfonyl]amino}ethyl)phenyl]phenyl}propyl)[(methylethyl)sulfonyl]amine]
solubility in organic solvents compared with the compound of formula I [1]: more soluble

CC(C)S(=O)(=O)NC[C@H](C)c1ccc(-c2ccc(CCNS(C)(=O)=O)cc2)cc1 [compound of formula I, {(2R)-2-[4-(4-{2-[(methylsulfonyl)amino]ethyl}phenyl)phenyl]propyl}[(methylethyl)sulfonyl]amine]
water solubility (water solubility): poor

— patent US6984756B2, “Process for preparing biphenyl compounds” (Eli Lilly and Company, priority 2000, dated 2006)
